Measurements: patent publication US11884643B2, “Substituted thiophenecarboxamides and analogues as antibacterials agents” (priority 2018, dated 2024)
Like-named read-outs stand apart in the source and are kept apart here.

Columns and labels:
[1] = tested on: Xanthomonas campestris pv. Campestris; assay: Xanthomonas campestris pv. Campestris in vitro cell test (bacteria growth in liquid culture); assay type: cell-based; conditions: 20 ppm of tested compound, 24 h of incubation
Description: Culture medium: LB broth medium (Luria Broth Miller) Sigma
Inoculum: bacteria suspension
Compounds to be tested were solubilized in DMSO and the solution used to prepare the required range of concentrations. The final concentration of DMSO used in the assay was ≤1%.
Inoculum was prepared from a pre-culture of bacteria grown in liquid medium and diluted to the desired optical density (OD).
Compounds were evaluated for their ability to inhibit bacteria growth in liquid culture assay. The compounds were added in the desired concentrations to culture medium containing the bacteria suspension. After 24 h of incubation, the efficacy of compounds was determined by spectrometric measurement of bacteria growth. Inhibition was determined by comparing the absorbance values in wells containing the compounds with the absorbance in control wells without compounds.

[2] = Log P by HPLC on reversed phase columns (EEC directive 79/831 Annex V.A8); assay type: physicochemical
Description: If more than one Log P value is available within the same method, all the values are given and separated by “+”. Calibration was done with straight-chain alkan2-ones (with 3 to 16 carbon atoms) with known Log P values (measurement of Log P values using retention times with linear interpolation between successive alkanones). Lambda-max-values were determined using UV-spectra from 200 nm to 400 nm and the peak values of the chromatographic signals.

[3] = method [a]: LC-UV, acidic range, 0.1% formic acid in water and acetonitrile as eluent
[4] = reversed phase HPLC columns, method [a]: LC-UV, acidic range, 0.1% formic acid in water and acetonitrile as eluent, read-out: LogP
[5] = reversed phase HPLC columns, value given in preparation example, method letter not indicated, read-out: Log P

Row | SMILES | LogP [2, 3] | further results
1 | O=C1OC(c2sc(Br)c(Br)c2F)=NC12CC2 [III.01, 5-(4,5-dibromo-3-fluoro-2-thienyl)-6-oxa-4-azaspiro[2.4]hept-4-en-7-one] |  | direct activity (inhibition of bacteria growth) [1]: no direct activity; chromatographic logP ([2]; Log P): 3.58; chromatographic logP ([2]; LogP): 3.57
2 | Cc1c(C2=NC3(CC3)C(=O)O2)sc(Br)c1Br [III.02] | 4.33^[a] | direct activity (inhibition of bacteria growth) [1]: no direct activity
3 | O=C1OC(c2sc(Cl)c(Cl)c2Cl)=NC12CC2 [III.03] | 4.01^[a] | direct activity (inhibition of bacteria growth) [1]: no direct activity
4 | Cc1c(C2=NC3(CC3)C(=O)O2)sc(Cl)c1Cl [III.04] | 4.30^[a] | direct activity (inhibition of bacteria growth) [1]: no direct activity
5 | O=C1OC(c2sc(Br)c(Br)c2I)=NC12CC2 [III.05] | 4.30^[a] | direct activity (inhibition of bacteria growth) [1]: no direct activity
6 | O=C1OC(c2sc(Br)c(Br)c2Br)=NC12CC2 [III.06] | 4.15^[a] | 
7 | O=C1OC(c2sc(Cl)c(Cl)c2Br)=NC12CC2 [III.07] | 4.12^[a] | 
8 | O=C1OC(c2sc(Br)c(Br)c2Cl)=NC12CC2 [III.08] | 4.08^[a] | 
9 | O=C1OC(c2sc(Cl)c(Cl)c2I)=NC12CC2 [III.09] | 4.23^[a] | 
10 | CCOC(=O)C1(NC(=O)c2sc(Br)c(Br)c2F)CC1 [XXI.01, ethyl 1-{[(4,5-dibromo-3-fluoro-2-thienyl)carbonyl]amino}cyclopropanecarboxylate] |  | chromatographic logP [2, 4]: 3.17; chromatographic logP [2, 5]: 3.15
11 | O=C(NC1(C(=O)O)CC1)c1sc(Br)c(Br)c1F [XXI.03, 1-{[(4,5-dibromo-3-fluoro-2-thienyl)carbonyl]amino}cyclopropanecarboxylic acid] |  | chromatographic logP [2, 4]: 2.14; chromatographic logP [2, 5]: 2.15
12 | CCOC(=O)C1(NC(=O)c2sc(Cl)c(Cl)c2Cl)CC1 [XXI.05, ethyl 1-{[(3,4,5-trichloro-2-thienyl)carbonyl]amino}cyclopropanecarboxylate] | 3.41^[a] | 
13 | CCOC(=O)C1(NC(=O)c2sc(Cl)c(Cl)c2I)CC1 [XXI.08, ethyl 1-{[(4,5-dichloro-3-iodo-2-thienyl)carbonyl]amino}cyclopropanecarboxylate] |  | chromatographic logP [2, 4]: 3.39
14 | CCOC(=O)C1(NC(=O)c2sc(Cl)c(Cl)c2C)CC1 [XXI.11, ethyl 1-{[(4,5-dichloro-3-methyl-2-thienyl)carbonyl]amino}cyclopropanecarboxylate] |  | chromatographic logP [2, 4]: 3.16; chromatographic logP [2, 5]: 3.16
15 | Cc1c(C(=O)NC2(C(=O)O)CC2)sc(Cl)c1Cl [XXI.14] | 2.17^[a] | 
16 | O=C(NC1(C(=O)O)CC1)c1sc(Cl)c(Cl)c1Br [XXI.22] | 2.37^[a] | 
17 | O=C(O)c1sc(Cl)c(Cl)c1Br [XXIIa.06] | 2.52^[a] | 
18 | COC(=O)c1sc(Cl)c(Cl)c1Br [XXIIa.09] | 4.11^[a] | 
19 | CC(C)COC(=O)c1sc(Cl)c(Cl)c1Cl [XXIIa.13] | 5.75^[a] | 
20 | CCOC(=O)C1(NC(=O)c2sc(Cl)c(Cl)c2N)CC1 [XXVIII.01, ethyl 1-{[(3-amino-4,5-dichloro-2-thienyl)carbonyl]amino}cyclopropanecarboxylate] | 2.77^[a] | Log P ([2]; value given in preparation example, method letter not indicated): 2.77
21 | Cl.Nc1c(C(=O)O)sc(Cl)c1Cl [XXXa.02, 3-amino-4,5-dichlorothiophene-2-carboxylic acid hydrochloride (1:1)] | 2.05^[a] | 
